Results published in publication PMC7334220, “Diamond Blackfan anemia is mediated by hyperactive Nemo-like kinase” (Nature Communications, 2020).
Read-outs that look alike come from different tables or passages of the source.

Legend:
[1] = system: RPS19-insufficient Lin-Kit+ progenitors from mouse embryonic (E14.5–E15.5) fetal livers; assay: c-Kit+ erythroid expansion rescue in murine RPS19-insufficient progenitors (Cell titer-Glo); type: cell-based; conditions: for rescue of c-Kit+ erythroid expansion: 10 µM, murine RPS19-insufficient model, Fig. 1b; for EC50: Mus musculus, read-out: EC50 of improved erythroid growth
Procedure: (§1) Cells were plated at 2000 cell per well in 96-well plates in the presence or absence of doxycycline. Relative amounts of live cells were quantified by luciferase-based Cell titer-Glo® assay. b TGFβR1 inhibitors were assessed for their ability to increase cell expansion in RPS19-insuffiency. As a control, vehicle alone (no doxycycline) is represented at the far left while all other samples were treated with doxycycline to induce RPS19-insufficiency. c Kit^+ erythroid progenitors were grown in the absence of doxycycline and in the presence of 10 µM of indicated compound. In addition, cells were treated with 5 ng/ml of TGFβ1 for 5 days before being subjected to Cell titer-Glo® assay. d Differentiating cord blood CD34^+ progenitors were transduced with shRNA against luciferase or RPS19 and treated with inhibitors at working concentrations for TGFβ inhibition every three days. […] Cells were counted and CD235^+ erythroid (i and iii) and CD11b^+ myeloid cell (ii and iv) percentages were determined by flow cytometry. The number of erythroid or myeloid cells is expressed as a percentage of the number of that lineage with no cytokine or drug treatment. Bars represent means ± SD with individual data points overlaid. n = 3 independent experiments performed in triplicate. Statistics: two-tailed Student’s t test, significant *p < 0.05. Also see Supplementary Fig. 1. Erythroid expansion is depicted in red while myeloid is in purple. Source data are provided as a Source Data file.
(1 picture or pasted object on this page, not shown here)

[2] = system: RPS19-insufficient cord blood CD34+ HSPCs; assay: In vitro differentiation of cord blood CD34+ HSPCs transduced with shRNA against RPS19 (cell count and flow cytometry); on erythroid expansion in RPS19-insufficiency, % of control: untreated 8.7%; type: cell-based, human; conditions: for increase of erythropoiesis in RPS19-insufficiency compared with control treated cells: CD235+ erythroid cells after 15 days, inhibitors at working concentrations for TGFβ inhibition every three days, Fig. 1d
Procedure: as §1
Cells were counted and assessed for cell surface expression of CD235. b Lin-Kit^+ hematopoietic progenitors were obtained from three mouse embryos expressing tetracycline-inducible shRNA against RPS19 at day E14.5 or three untreated mice, and thee mature RPL11^+/+ or three mature RPL11^+/lox mice treated with tamoxifen for eight weeks. […] Values were expressed as a percentage relative to untreated controls. c, d Intracellular phosphorylation of NLK at Thr298 was determined by capillary electrophoresis using the Peggy Sue™ Automated Western blotting platform. After lysis, 4 µg of protein from the CD235^+ population was probed against pThr298-NLK and normalized to GAPDH. […] After counting the total cell population, the ratio of CD235^+ erythroblasts was determined by flow cytometry and number of CD235^+ erythroblasts calculated. This was expressed as a percentage of the average number of erythroid cells present in untreated healthy controls. f NLK phosphorylation was assessed by capillary electrophoresis as above. Bars represent means ± SD with individual data points overlaid. […] Statistics: two-tailed Student’s t test, significant *p < 0.05. Also see Supplementary Fig. 8. Source data are provided as a Source Data file.
Primary human CD34^+ hematopoietic stem and progenitor cells were purified from cord or peripheral blood (New York Blood Center) or from human fetal liver tissue (Advanced Bioscience Resources and University of California, Los Angeles Center for AIDS Research) by using magnetic-activated cell sorting (Miltenyi Biotec) and were cryopreserved. Upon thawing, cells were cultured in x-Vivo15 media (Lonza) containing 10% fetal bovine serum, fms-related tyrosine kinase 3 (50 ng/ml), […] (50 ng/ml), interleukin-3 (IL-3; 20 ng/ml), interleukin-6 (IL-6; 20 ng/ml), and stem cell factor (50 ng/ml). When applied, TGFβ1 was added at 5 ng/ml. Kp53A1 cells were obtained from Javier Leon and cultured in DMEM supplemented with 10% fetal bovine serum at 37 or 32 °C.

| SMILES | rescue of c-Kit+ erythroid expansion [1] | EC50 [1] | erythroid expansion (CD235) in RPS19-insufficient HSPCs ([2]; 12 days, recommended concentrations, rebuttal Experiment 12) | increase of erythropoiesis in RPS19-insufficiency compared with control treated cells [2] | improvement of erythropoiesis (comparison of SD208 with p38 inhibitors) ([2]; CD235+, 12 days, recommended concentrations, Supplementary Fig. 2b) | activity at 5 µM ([2]; Homo sapiens, 360 h, read-out: erythroid expansion in RPS19-insufficiency, % of control) | erythroid expansion, % of vehicle treated control cells ([2]; RPS19-insufficient cells, 5 µM, with or without TGFβ, Fig. 1e.iii) | RPS19-insufficient CD235+ erythroblast expansion, % of ribosome-competent controls ([2]; SD208 alone every three days, 15 days, untreated […], Fig. 2d.i) | RPS19-insufficient CD235+ erythroblast expansion, % of ribosome-competent controls, combined with siRNA against NLK ([2]; SD208 plus siNLK, 15 days, untreated […], Fig. 2d.i) | effect on differentiation of non-erythroid hematopoietic lineages ([2]; control or ribosome-insufficient cells) | EC50 ([1]; murine RPS19-insufficient cells, Supplementary Fig. 1a) |
| --- | --- | --- | --- | --- | --- | --- | --- | --- | --- | --- | --- |
| Fc1ccc(Cl)cc1-c1nc(Nc2ccncc2)c2nccnc2n1 [SD208] | significantly rescued | 0.7 µM | significantly increased | 6.3 fold | improved erythropoiesis | 38.7% | 428.6% | 40.3% | 43.6% | did not impact |  |
| NC(=O)c1ccc(-c2nc(-c3ccc4c(c3)OCO4)c(-c3ccccn3)[nH]2)cc1 [SB431542] | significantly rescued |  |  | 3.2 fold |  |  |  |  |  |  | 5 µM |
